PubChem BioAssay AID248 (DTP/NCI, 2004)
Where “and” joins values, the source holds several entries; their conditions need not be identical. Equal entries are not always repeated. Toxic doses and inconclusive results are not listed.

Test system: L1210 leukemia ip in BDF1 mice, survival T/C
Assay: NCI In Vivo Anticancer Drug Screen. Data for tumor model L1210 Leukemia (intraperitoneal) in B6D2F1 (BDF1) mice
Settings: endpoint: mean survival time, higher = longer survival
Summary of the method: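 In this screen, tumor-bearing mice given compound are compared to those given vehicle, and their survival values are reported as a treated-to-control quotient.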

[1] = dose: 100.0 mg/kg/injection, schedule: Q01DX009 (ip), vehicle: saline with Tween-80
[2] = dose: 200.0 mg/kg/injection, schedule: Q01DX009 (ip), vehicle: saline with Tween-80
[3] = dose: 25.0 mg/kg/injection, schedule: Q04DX003 (ip), vehicle: saline
[4] = dose: 50.0 mg/kg/injection, schedule: Q04DX003 (ip), vehicle: saline
[5] = dose: 100.0 mg/kg/injection, schedule: Q01DX001 (ip), vehicle: saline
[6] = dose: 25.0 mg/kg/injection, schedule: Q01DX009 (ip), vehicle: saline
[7] = dose: 50.0 mg/kg/injection, schedule: Q01DX009 (ip), vehicle: saline

COC1/C=C/O[C@@]2(C)Oc3c(C)c(O)c4c(O)c(cc(O)c4c3C2=O)NC(=O)/C(C)=C\C=C\[C@H](C)C(O)[C@@H](C)[C@@H](O)[C@@H](C)[C@H](OC(C)=O)[C@@H]1C (stereo not given in full)
T/C (dose: 4.0 mg/kg/injection, schedule: Q03HX040 (ip), vehicle: saline): 101 % of control
T/C (dose: 8.0 mg/kg/injection, schedule: Q03HX040 (ip), vehicle: saline): 103 % of control
T/C (dose: 16.0 mg/kg/injection, schedule: Q03HX040 (ip), vehicle: saline): 97 % of control
T/C [1]: 104 % of control
T/C (dose: 100.0 mg/kg/injection, schedule: Q04DX003 (ip), vehicle: saline with Tween-80): 95 % of control
T/C (dose: 119.0 mg/kg/injection, schedule: Q01DX009 (ip), vehicle: saline): 98 % of control
T/C (dose: 128.0 mg/kg/injection, schedule: Q03HX024 (ip), vehicle: saline): 92 % of control
T/C (dose: 128.0 mg/kg/injection, schedule: Q03HX040 (ip), vehicle: saline): 89 % of control
T/C (dose: 178.0 mg/kg/injection, schedule: Q01DX009 (ip), vehicle: saline): 96 % of control
T/C [2]: 92 % of control
T/C (dose: 200.0 mg/kg/injection, schedule: Q04DX003 (ip), vehicle: saline with Tween-80): 87 % of control
T/C (dose: 256.0 mg/kg/injection, schedule: Q03HX024 (ip), vehicle: saline): 93 % of control
T/C (dose: 267.0 mg/kg/injection, schedule: Q01DX009 (ip), vehicle: saline): 98 % of control
T/C (dose: 400.0 mg/kg/injection, schedule: Q01DX009 (ip), vehicle: saline with Tween-80): 97 % of control
T/C (dose: 400.0 mg/kg/injection, schedule: Q01DX009 (ip), vehicle: saline): 104 % of control
T/C (dose: 400.0 mg/kg/injection, schedule: Q04DX003 (ip), vehicle: saline with Tween-80): 101 % of control
T/C (dose: 512.0 mg/kg/injection, schedule: Q03HX024 (ip), vehicle: saline): 92 % of control
T/C (dose: 512.0 mg/kg/injection, schedule: Q03HX040 (ip), vehicle: saline): 88 % of control
T/C (dose: 1024.0 mg/kg/injection, schedule: Q03HX024 (ip), vehicle: saline): 98 % of control

CN(C)CCCNC1=C(Cl)C(=O)C(NCCCN(C)C)=C(Cl)C1=O
T/C (dose: 100.0 mg/kg/injection, schedule: Q04DX003 (ip), vehicle: acetone): 89 % of control

O=C(CCN1CC=C(c2ccccc2)CC1)c1ccc(N2CC=C(c3ccccc3)CC2)cc1
T/C (dose: 75.0 mg/kg/injection, schedule: Q04DX002 (ip), vehicle: saline with Tween-80): 100 % of control
T/C (dose: 150.0 mg/kg/injection, schedule: Q04DX002 (ip), vehicle: saline with Tween-80): 100 % of control
T/C (dose: 300.0 mg/kg/injection, schedule: Q04DX002 (ip), vehicle: saline with Tween-80): 107 % of control

O=CNc1nc(Cl)c2ncn(C3OC(COCc4ccccc4)C(OCc4ccccc4)C3OCc3ccccc3)c2n1 (stereo not given)
T/C (dose: 12.5 mg/kg/injection, schedule: Q01DX005 (ip), vehicle: saline): 104 % of control
T/C (dose: 25.0 mg/kg/injection, schedule: Q01DX005 (ip), vehicle: saline): 98 % of control
T/C (dose: 50.0 mg/kg/injection, schedule: Q01DX005 (ip), vehicle: saline): 102 % of control
T/C (dose: 100.0 mg/kg/injection, schedule: Q01DX005 (ip), vehicle: saline): 113 % of control
T/C (dose: 200.0 mg/kg/injection, schedule: Q01DX005 (ip), vehicle: saline): 106 % of control

O=C(CCCc1ccccc1)N1CCOCC1
T/C (dose: 100.0 mg/kg/injection, schedule: Q01DX009 (ip), vehicle: saline sonified): 94 % of control
T/C (dose: 200.0 mg/kg/injection, schedule: Q01DX009 (ip), vehicle: saline sonified): 96 % of control
T/C (dose: 400.0 mg/kg/injection, schedule: Q01DX009 (ip), vehicle: saline sonified): 102 % of control

CCN=C(N)c1ccc(N=C(N)c2cccc(C(N)=Nc3ccc(C(N)=NCC)cc3)c2)cc1
T/C (dose: 3.75 mg/kg/injection, schedule: Q01DX Z (ip), vehicle: saline): 104 % of control
T/C (dose: 15.0 mg/kg/injection, schedule: Q01DX Z (ip), vehicle: saline): 120 % of control

CC(=O)c1ccc(Cc2ccc(C(C)=O)s2)s1
T/C (dose: 50.0 mg/kg/injection, schedule: Q01DX009 (ip), vehicle: saline with Tween-80): 86 % of control
T/C [1]: 93 % of control
T/C [2]: 89 % of control

c1ccc2c(c1)Sc1ccccc1N2CCCN1CCCC1
T/C (dose: 6.25 mg/kg/injection, schedule: Q04DX003 (ip), vehicle: saline): 108 % of control
T/C (dose: 12.5 mg/kg/injection, schedule: Q04DX003 (ip), vehicle: saline): 105 % of control
T/C [3]: 116 % of control
T/C (dose: 50.0 mg/kg/injection, schedule: Q01DX001 (ip), vehicle: saline): 108 % of control and 123 % of control
T/C [4]: 106 % of control
T/C [5]: 97 % of control and 103 % of control

C[C@H]1[C@H](O)[C@H]2[C@@H](CCC3=CC(=O)CC[C@@]32C)[C@@H]2CC[C@H](O)[C@@]12C
T/C (dose: 50.0 mg/kg/injection, schedule: Q01DX001 (sc), vehicle: steriod suspending solution): 102 % of control
T/C (dose: 100.0 mg/kg/injection, schedule: Q01DX001 (sc), vehicle: steriod suspending solution): 102 % of control
T/C (dose: 200.0 mg/kg/injection, schedule: Q01DX001 (sc), vehicle: steriod suspending solution): 102 % of control
T/C (dose: 400.0 mg/kg/injection, schedule: Q01DX001 (sc), vehicle: steriod suspending solution): 96 % of control

COc1cc(NCC(O)C(O)C(O)CO)c([N+](=O)[O-])cc1OC (stereo not given)
T/C [5]: 92 % of control
T/C (dose: 200.0 mg/kg/injection, schedule: Q01DX001 (ip), vehicle: saline): 99 % of control
T/C (dose: 400.0 mg/kg/injection, schedule: Q01DX001 (ip), vehicle: saline): 100 % of control

CCC(=O)OC1(c2ccccc2)CCN(C)C1C (stereo not given)
T/C (dose: 6.25 mg/kg/injection, schedule: Q01DX009 (ip), vehicle: saline): 101 % of control
T/C (dose: 12.5 mg/kg/injection, schedule: Q01DX009 (ip), vehicle: saline): 97 % of control
T/C [6]: 103 % of control
T/C [3]: 103 % of control
T/C [7]: 111 % of control
T/C [4]: 105 % of control
T/C (dose: 100.0 mg/kg/injection, schedule: Q01DX009 (ip), vehicle: saline): 103 % of control
T/C (dose: 100.0 mg/kg/injection, schedule: Q04DX003 (ip), vehicle: saline): 100 % of control

NNc1ccc(S(=O)(=O)C(F)(F)C(F)Cl)cc1 (stereo not given)
T/C (dose: 100.0 mg/kg/injection, schedule: Q01DX009 (ip), vehicle: gum acacia): 105 % of control
T/C (dose: 100.0 mg/kg/injection, schedule: Q04DX003 (ip), vehicle: gum acacia): 101 % of control
T/C (dose: 200.0 mg/kg/injection, schedule: Q01DX009 (ip), vehicle: gum acacia): 100 % of control
T/C (dose: 200.0 mg/kg/injection, schedule: Q04DX003 (ip), vehicle: gum acacia): 96 % of control
T/C (dose: 400.0 mg/kg/injection, schedule: Q04DX003 (ip), vehicle: gum acacia): 96 % of control

NC(CCC(=O)NC(CSC(c1ccccc1)(c1ccccc1)c1ccc(F)cc1)C(=O)NCC(=O)O)C(=O)O (stereo not given)
T/C [6]: 124 % of control
T/C (dose: 50.0 mg/kg/injection, schedule: Q01DX009 (ip), vehicle: other): 116 % of control
T/C [7]: 118 % of control
T/C (dose: 200.0 mg/kg/injection, schedule: Q01DX009 (ip), vehicle: saline): 152 % of control

S=C=NCc1cccc(CN=C=S)c1
T/C (dose: 6.25 mg/kg/injection, schedule: Q01DX009 (ip), vehicle: saline with Tween-80): 103 % of control

COC(=O)c1nnn(CN(CN(CN(Cn2nnc(C(=O)OC)c2C(=O)OC)[N+](=O)[O-])[N+](=O)[O-])[N+](=O)[O-])c1C(=O)OC
T/C (dose: 75.0 mg/kg/injection, schedule: Q01DX001 (ip), vehicle: Klucel (hydroxypropylcellulose) (HPC)): 108 % of control
T/C (dose: 150.0 mg/kg/injection, schedule: Q01DX001 (ip), vehicle: Klucel (hydroxypropylcellulose) (HPC)): 100 % of control
T/C (dose: 300.0 mg/kg/injection, schedule: Q01DX001 (ip), vehicle: Klucel (hydroxypropylcellulose) (HPC)): 110 % of control

N=C(c1ccccc1)c1ccccc1S(=O)(=O)Nc1ccccc1
T/C (dose: 100.0 mg/kg/injection, schedule: Q01DX001 (ip), vehicle: carboxymethylcellulose (CMC)): 95 % of control
T/C (dose: 200.0 mg/kg/injection, schedule: Q01DX001 (ip), vehicle: carboxymethylcellulose (CMC)): 101 % of control
T/C (dose: 400.0 mg/kg/injection, schedule: Q01DX001 (ip), vehicle: carboxymethylcellulose (CMC)): 95 % of control

CC1CCC2(C)CCC3(C)C(=CCC4C5(C)CCC(OC(=O)c6ccccc6)C(C)(C)C5CCC43C)C2C1C (stereo not given)
T/C (dose: 100.0 mg/kg/injection, schedule: Q01DX001 (ip), vehicle: saline with Tween-80): 96 % of control
T/C (dose: 200.0 mg/kg/injection, schedule: Q01DX001 (ip), vehicle: saline with Tween-80): 102 % of control
